Assay results from patent US20220081481A1, “USE OF AGENTS CAPABLE OF INDUCING LC3-ASSOCIATED PHAGOCYTOSIS FOR TREATING SUSTAINED INFLAMMATION IN PATIENTS SUFFERING FROM CHRONIC LIVER DISEASE” (INSERM (INSTITUT NATIONAL DE LA SANTÉ ET DE LA RECHERCHE …, priority 2019, published 2022).
Ends that are not written are not given here.

How the values were obtained:
[1] = test system: CD14+ cells from patients and healthy donors PBMC; test: Flow cytometry of IL8+ production in CD14+ cells of PBMC; type: cell-based, human; conditions: for number of CD14+IL8+ monocytes: cirrhotic monocytes vs control-treated cells from healthy donors, 10 mM 3-MA, 10 μM DPI, 30 μM N8, 4 hrs, FIG. 1B; for inflammatory signature in blood monocytes: healthy donors and patients, prominent increase in cells from patients, 4 hrs at 37° C., FIG. 1B and 1C
Description: FIG. 1: Inhibition of LAP components enhances the inflammatory signature in blood monocytes from patients with cirrhosis. (A). Inverse correlation between circulating C-Reactive Protein (CRP) levels and the number of LC3+ pHrodo+ phagosomes containing E. Coli bioparticles in blood monocytes from patients with cirrhosis (n=14). *p=0.005, r=-0.7 for LC3+ pHrodo+ phagosomes number vs CRP. (B). PBMC were incubated for 4 hrs at 37° C. with either vehicle, 10 mM 3-MA, 10 μM DPI, 30 μM N8 or control mutant […] peptides Percentage of IL8+ production in CD14+ cells from patients (n=8) and healthy donors (n=6) PBMC. (C). RT-PCR analysis of inflammatory gene expression in blood monocytes from healthy donors (n=6-8) and cirrhotic patients (n=6-11). Results are expressed as fold over respective control. *p<0.05, **p<0.001 for healthy vs cirrhotic. Statistical analysis was performed using Spearman correlation test (A), Mann-Whitney (b, for comparison between healthy and cirrhosis) and Wilcoxon matched-pairs signed rank test (B, for treatment). Peripheral blood mononuclear cells (PBMC) and monocyte isolation. PBMC were prepared from the blood of cirrhotic patients and healthy donors, using Ficoll density gradient centrifugation (Ficoll PaqueTM-plus, GE Healthcare, 17-1440-02), as previously described^43. Cell treatment. Human monocytes, THP1-XBlueTM-CD14 (Invivogen, Catalog #[…] THP1-FcγRIIA+-CD14+(kindly provided by Novimmune) monocytes were used. When indicated cells were exposed to either 30 μM chloroquine diphosphate (Sigma, C6628), 10 mM 3-Methyladenine (3-MA, Sigma, M9281-100 mg), 10 mM Diphenyleneiodonium chloride (DPI, Sigma, D2926-10 mg), or 10 mg/ml IVIg (Privigen, 100 mg/ml) for 4 hrs at 37° C., as indicated. […] In some experiments, cells were exposed to the preformed complex (10 μg/ml of mouse anti-hFcγRII mAb (clone AT-10, Santa Cruz, sc-13527) F(ab')2 fragments+20 μg/ml goat anti-mouse anti-kappa F(ab')2 fragments (Southern Biotech, 1052-01) or to 100 μg/ml of anti-hFcγRIIA mAb F(ab')2 fragments (clone IV.3), purified as we previously described^26. Flow cytometry. For surface and intracellular staining, PBMC (1×10^6) were centrifuged at 4° C. at 500 g for 5 min and stained in the dark for 30 min at 4° C. in flow cytometry staining buffer (5% FCS-PBS) containing fluorochrome-conjugated antibodies (APC-CD14, clone HCD14, Biolegend, 325608), CD11b-PE-vio 770 (clone REA592, Miltenyi Biotec, 130-109-287), CD16 Brilliant violet 605 (clone3G8, 302040, Biolegend) and FITC-FcγRIIA (clone […] Technologies, 60012FI). […] Data acquisition was performed using a BD Biosciences LSR Fortessa cytometer and data were analysed using FlowJo analysis software (Tree Star).

[2] = test system: blood monocytes from healthy donors and cirrhotic patients; test: RT-PCR analysis of inflammatory gene expression in blood monocytes; type: cell-based, human; conditions: cirrhotic monocytes vs control-treated cells from healthy donors; 10 mM 3-MA, 10 μM DPI, 30 μM N8; FIG. 1C
Description: FIG. 1: Inhibition of LAP components enhances the inflammatory signature in blood monocytes from patients with cirrhosis. (A). Inverse correlation between circulating C-Reactive Protein (CRP) levels and the number of LC3+ pHrodo+ phagosomes containing E. Coli bioparticles in blood monocytes from patients with cirrhosis (n=14). *p=0.005, r=-0.7 for LC3+ pHrodo+ phagosomes number vs CRP. (B). PBMC were incubated for 4 hrs at 37° C. with either vehicle, 10 mM 3-MA, 10 μM DPI, 30 μM N8 or control mutant […] peptides Percentage of IL8+ production in CD14+ cells from patients (n=8) and healthy donors (n=6) PBMC. (C). RT-PCR analysis of inflammatory gene expression in blood monocytes from healthy donors (n=6-8) and cirrhotic patients (n=6-11). Results are expressed as fold over respective control. *p<0.05, **p<0.001 for healthy vs cirrhotic. Statistical analysis was performed using Spearman correlation test (A), Mann-Whitney (b, for comparison between healthy and cirrhosis) and Wilcoxon matched-pairs signed rank test (B, for treatment). Human blood monocytes. Human monocytes were isolated from freshly isolated PBMC, using EasySep human monocyte enrichment kit (STEMCELL Technologies, 19058), and CD14+CD16+ monocytes were isolated by immunomagnetic negative selection according to the manufacturer's instructions. Cell treatment. […]

Question: For `Cn1cnc(N)c2ncnc1-2` [3-MA, 3-Methyladenine], which “number of CD14+IL8+ monocytes” value [1] is on record?
Answer: significantly higher

Question: What about the “inflammatory signature in blood monocytes” value [1] of the same compound?
Answer: enhanced

Question: What about the “gene expression of cytokines and chemokines” value [2] of the same compound?
Answer: significantly higher

Question: Which results are given for “N8 peptide: Tat-conjugated peptide of eight N-terminal amino acids (3-10) of p22phox that blocks the Rubicon-p22phox interaction (QIEWAMWA; also: Tat cell-penetrating peptide conjugate, attachment not given here; UniProt P13498 3-10, looked up, fragment)”?
Answer: number of CD14+IL8+ monocytes [1]: significantly higher; inflammatory signature in blood monocytes [1]: enhanced; gene expression of cytokines and chemokines [2]: significantly higher
